Data from PubChem BioAssay AID600 (The Scripps Research Institute Molecular Screening Center, 2007).
The source made the active and inactive calls.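 The calls were made as follows: active = IC50 at or below 10 micromolar; inactive = IC50 above 10 micromolar.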

Target: Steroidogenic factor 1 (Homo sapiens) (UniProt Q13285)
Assay: blockers of SF-1 LBD reporter transcription – cell-based, CHO-K1, Gal4-SF-1 LBD, luciferase luminescence, dose response (AID 600)
Conditions: CHO-K1 Gal4-SF-1 LBD luciferase reporter

Steroidogenic factor 1 (Homo sapiens), sequence (Q13285 whole entry, looked up, the tested form may be a part): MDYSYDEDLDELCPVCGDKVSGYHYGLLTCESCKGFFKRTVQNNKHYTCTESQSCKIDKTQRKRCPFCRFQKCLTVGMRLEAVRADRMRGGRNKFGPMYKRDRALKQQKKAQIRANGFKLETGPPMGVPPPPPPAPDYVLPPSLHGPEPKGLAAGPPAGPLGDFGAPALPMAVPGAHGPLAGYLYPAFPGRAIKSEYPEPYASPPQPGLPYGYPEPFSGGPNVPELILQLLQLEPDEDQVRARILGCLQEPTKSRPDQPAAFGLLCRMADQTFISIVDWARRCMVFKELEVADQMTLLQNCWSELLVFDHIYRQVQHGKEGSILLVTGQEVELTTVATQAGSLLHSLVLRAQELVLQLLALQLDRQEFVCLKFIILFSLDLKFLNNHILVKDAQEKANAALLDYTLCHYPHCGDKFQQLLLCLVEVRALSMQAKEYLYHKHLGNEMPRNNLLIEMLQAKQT

Q: How did the IC50 turn out when `CN(C)c1ccc2c(c1)OC(N)=C(C#N)C2c1cccc(F)c1` (stereo not drawn) was run?
A: inactive

Q: How did the IC50 turn out when `N#CC1=C(N)C(C#N)(C#N)[C@H](c2ccncc2)[C@H]2CN(C(=O)OCc3ccccc3)CC=C12` was run?
A: inactive

Q: Which IC50 does the source give for `CN(C)c1ccc(N/C=C/C(=O)c2ccccc2)cc1` here?
A: > 11 µM (inactive)

Q: With `COc1cc(/C=N/O)ccc1OCc1ccc(C(=O)O)cc1` as the compound, how does the IC50 read?
A: 1.16 µM

Q: With `O=C(/C=C\Nc1ccc2c(c1)OCO2)c1ccccn1` as the compound, how does the IC50 read?
A: inactive

Q: With `COc1cc(C2C(C#N)=C(N)Oc3cc(N)ccc32)cc(OC)c1OC` (stereo not drawn) as the compound, how does the IC50 read?
A: 7.92 µM

Q: `O=S(=O)(c1ccc2c(c1)C(=NO)c1cc(S(=O)(=O)N3CCCCC3)ccc1-2)N1CCCCC1` was tested. Which IC50 did it give?
A: 1.51 µM

Q: How did the IC50 turn out when `COc1cc(C2C(C#N)=C(N)Oc3cc(N(C)C)ccc32)cc2c1OCO2` (stereo not drawn) was run?
A: > 3.67 µM (inactive)

Q: How did the IC50 turn out when `Cc1ccc(C(=O)/C=C/Nc2ccccn2)cc1` was run?
A: > 11 µM (inactive)

Q: For `COC(=O)C1=C(CN2CCCc3ccccc32)NC(=O)NC1c1ccc(F)cc1` (stereo not drawn), which IC50 is on record?
A: 5.34 µM

Q: How did the IC50 turn out when `COC(=O)c1ccc(N2C(=O)CC(N3CCC(n4c(=O)[nH]c5ccccc54)CC3)C2=O)cc1` (stereo not drawn) was run?
A: > 99 µM (inactive)

Q: How did the IC50 turn out when `CC(=O)CC1OC(=O)C(Br)=C1NCc1ccccc1` (stereo not drawn) was run?
A: > 11 µM (inactive)

Q: Which IC50 does the source give for `O=C(/C=C\Nc1ccccn1)c1ccc(Cl)cc1` here?
A: 6.09 µM

Q: Which IC50 does the source give for `O=C(/C=C\Nc1cccc(F)c1)c1ccc2c(c1)OCO2` here?
A: 4.65 µM

Q: Which IC50 does the source give for `CCN(CC)c1ccc2c(c1)OC(N)=C(C#N)C2c1cccnc1` (stereo not drawn) here?
A: > 3.67 µM (inactive)

Q: With `CCOC(=O)C1=C(Cn2cnc3ccccc32)NC(=O)NC1c1cc(C)ccc1C` (stereo not drawn) as the compound, how does the IC50 read?
A: inactive

Q: How did the IC50 turn out when `CCOc1ccccc1-n1c(SCC(=O)Nc2ccc(CC)cc2)nc2n[nH]c(C)c2c1=N` was run?
A: 5.99 µM

Q: For `CSC1=C(C#N)C(c2ccc(Cl)cc2)C2=C(CC(C)(C)CC2=O)N1` (stereo not drawn), which IC50 is on record?
A: inactive
